How the values were obtained:
[1] = system: HEK293 cells; experiment: MTT cytotoxicity assay in HEK293 cells; format: cell-based; details: Homo sapiens, 48 h of treatment, non-cancer
Description: (§1) Dr. Dr. med. Sonja Loges (University Medical Center Hamburg-Eppendorf, Hamburg, Germany). Cells were cultured according to the manufacturers’ instructions and were recently authenticated by a commercial service (Multiplexion, Heidelberg, Germany). Culture conditions are described in the Supplementary Information.
(§2) MTT (3-(4,5-dimethylthiazol-2-yl)-2,5-diphenyltetrazolium bromide) cytotoxicity assay was used for the evaluation of cytotoxicity of the compounds or their combinations. Experiments were performed as previously described. In brief, 6000 cells/well were seeded in 96-well plate, incubated overnight, and treated with the drugs in 100 µL/well of 10% FBS/RPMI media containing 2 g/L of D-(+)-glucose for 48 h, unless otherwise stated. For 2 h treatment the cells were treated with the drugs for 2 h in the culture media, then the media was exchanged to fresh drug-free media (100 µL/well) containing MTT reagent and the further steps were performed as previously described.

[2] = system: 22Rv1 cells; experiment: Intracellular ROS (CM-H2DCFDA, flow cytometry); format: cell-based, human; details: 2 h of treatment
Description: Intracellular ROS levels were estimated using the ROS-sensitive CM-H2DCFDA reagent (Cat. No. C6827, Molecular probes, Invitrogen, Eugene, OR, USA) as described before. In brief, 22Rv1 cells were seeded in 12-well plates (0.2 × 10^6 cells/well in 1 mL/well of media) and incubated overnight. The media was changed into freshly made pre-warmed 4 µM CM-H2DCFDA/PBS (0.5 mL/well) and incubated for 30 min (37 °C, 5% CO2, in the dark). Then, the CM-H2DCFDA solution was exchanged with 1 mL/well of pre-warmed PBS containing the drugs or H2O2 (positive control) at the indicated concentrations. After 2 h of incubation the cells were trypsinized and immediately analyzed by flow cytometry technique according to the manufacture’s protocols.

[3] = system: MRC-9 cells; experiment: MTT cytotoxicity assay in MRC-9 cells; format: cell-based; details: Homo sapiens, MRC9, 48 h of treatment, non-cancer
Description: as §1, §2

[4] = system: 22Rv1 cells; experiment: Cell fractionation followed by Western blotting; format: cell-based, human; details: 48 h
Description: (§3) Preparation of protein extracts for western blotting was performed as described previously. In brief, for western blotting, 1 × 10^6 cells/well were seeded in Petri dishes (ø 6 cm TC Dish (Sarstedt, Numbrecht, Germany) in 5 mL/dish), incubated overnight and treated with drugs in 5 mL/dish for an indicated time. Cells were harvested using a cell scraper, pelleted, and resuspended in the lysis buffer containing protease and phosphatase inhibitors. Further sample preparation and western blotting were performed as previously described with slight modifications. Relative optical density of the detected bands was quantified with Quantity One 4.6 software (Bio-Rad, Hercules, CA, USA). The primary and secondary antibodies used are listed in the Supplementary Information.
22Rv1 cells were seeded in T75 culture bottles (4 × 10^6 cells/bottle in 20 mL/bottle), treated for 48 h and harvested by scratching. The further separation of cytosolic, mitochondrial and nuclear fractions was performed using the Cell Fractionation Kit ab109719 (abcam, Cambridge, MA) as previously described. Mitochondrial and cytosolic fractions were concentrated using Amicon® Ultra-2 Centrifugal Filter device (Cat. No. UFC203024, Merck, Darmstadt, Germany). Nuclear fractions were additionally homogenized using QIAshedder kit (QIAGEN, Hilden, Germany).

[5] = system: LNCaP cells; experiment: MTT cytotoxicity assay in LNCaP cells; format: cell-based; details: Homo sapiens, 48 h of treatment, cancer
Description: as §1, §2

[6] = system: 22Rv1 cells; experiment: Trypan blue exclusion viability assay; format: cell-based; details: Homo sapiens, 48 h of treatment
Description: The in vitro effect of the drugs on cell viability and proliferation was evaluated using trypan blue exclusion assay as described before with minor modifications. In brief, cells (0.2 × 10^6 cells/well) were seeded in 12-well plates, incubated overnight, the media was replaced with fresh media (1 mL/well) and treated with the drugs for 48 h. Cells were harvested by trypsination and the viability was measured using trypan blue staining and Beckman Coulter Vi-CELL (Beckman Coulter, Krefeld, Germany).

[7] = system: DU145 cells; experiment: MTT cytotoxicity assay in DU145 cells; format: cell-based; details: Homo sapiens, DU-145, 48 h of treatment, cancer
Description: as §1, §2

[8] = system: 22Rv1 cells; experiment: Mitochondrial membrane potential assay (JC-1, flow cytometry); format: cell-based, human; details: 2 h of treatment
Description: The loss of mitochondrial membrane potential (Δψ) was measured by flow cytometry technique using staining with Δψ-sensitive dye JC-1 (5,5′,6,6′-tetrachloro-1,1′,3,3′-tetraethylimidacarbocyanine iodide). Cells were seeded in 12-well plates (100 × 10^3 cells/well in 1 mL/well) and incubated overnight. Then, the media was changed to PBS (1 mL/well) containing the investigational drugs. After 2 h of incubation (37 °C, 5% CO2, in the dark) the cells were trypsinized, pelleted, resuspended in 100 µL of 2 µM JC-1/PBS, incubated for 1 h (37 °C, 5% CO2, in the dark) and Δψ loss was measured by flow cytometry technique.

[9] = system: PNT2 cells; experiment: MTT cytotoxicity assay in PNT2 cells; format: cell-based, human; details: 48 h of treatment
Source text: (§4) For general experiments human prostate cancer cell lines PC-3 and DU145 (docetaxel-resistant, androgen-independent, AR-FL(−), AR-V7(−)), 22Rv1 and VCaP (docetaxel-sensitive, androgen-independent, AR-FL(+), AR-V7(+), and LNCaP (docetaxel sensitive, androgen-dependent, AR-FL(+), AR-V7(−) were used. PC-3, 22Rv1, LNCaP cells as well as the human prostate non-cancer cells PNT2 and RWPE-1 were purchased from ATCC (Manassas, VA, USA). VCaP were purchased from ECACC (Salisbury, UK). The human fibroblast cell line MRC-9, the human embryonic kidney cell line HEK 293T, as well as the human umbilical vascular endothelial cell line HUVEC were kindly donated by Prof. Dr. Dr. med. Sonja Loges (University Medical Center Hamburg-Eppendorf, Hamburg, Germany). Cells were cultured according to the manufacturers’ instructions and were recently authenticated by a commercial service (Multiplexion, Heidelberg, Germany). Culture conditions are described in the Supplementary Information.
as §2
(§5) Table S4. Cytotoxic activity of the synthesized compounds. Cytotoxicity was determined in human prostate cancer PC-3 cells versus human prostate non-cancer
(§6) PNT2 cells after 48 h of treatment, as well as its ratio. IC50 was evaluated using MTT assay. SI–selectivity index. #–the IC50s in both cell lines were >100 µM.
(§7) Anisomycin was used as a reference substance.
(§8) No Formula IC50(PC-3) IC50(PNT2) SI […]

[10] = system: PC-3 cells; experiment: MTT cytotoxicity assay in PC-3 cells; format: cell-based, human
Source text: as §4, §2, §5, §6, §7, §8

[11] = system: 22Rv1 cells; experiment: Western blotting of treated cells; format: cell-based, human
Description: as §3

**Q.** Which IC50 [1] does the source give for `CC1(C)OC2OC(C(O)COC3=CC(=O)c4cccc(O)c4C3=O)C(O)C2O1` (centres unmarked) [Compound 11] here?
**A.** 4460 nM

**Q.** And the “effect on ROS level” value [2]?
**A.** remarkable and significant increase of the ROS level

**Q.** And the IC50 [3]?
**A.** 3740 nM

**Q.** And the “release of mitochondrial proteins AIF and cytochrome C” value [4]?
**A.** release of mitochondrial proteins

**Q.** What about the IC50 [5] of the same compound?
**A.** 570 nM

**Q.** And the IC50 [6]?
**A.** 2040 nM

**Q.** And the IC50 [7]?
**A.** 470 nM

**Q.** What about the “effect on ΔΨm” value [8] of the same compound?
**A.** quick ΔΨm loss

**Q.** And the IC50 [9]?
**A.** 4960 nM

**Q.** What about the IC50 ([9]; Homo sapiens, PNT2, 48 h) of the same compound?
**A.** 4960 nM

**Q.** What about the IC50 ([10]; Homo sapiens, PC-3, 48 h, 48 h of treatment) of the same compound?
**A.** 2070 nM

**Q.** What about the “SI [IC50(PNT2) / IC50(PC-3)]” value ([10]; ratio of IC50 in PNT2 cells to IC50 in PC-3 cells, 48 h) of the same compound?
**A.** 2.40

**Q.** What about the “cleavage of caspase-9” value ([11]; 2 h and 48 h treatment) of the same compound?
**A.** observed already after 2 h

**Q.** And the ERK1/2 activity ([11]; 2 h treatment)?
**A.** suppressed

**Q.** And the MEK1/2 alteration ([11]; 2 h treatment)?
**A.** No significant alteration

**Q.** What about the “activation of Akt” value ([11]; 2 h treatment) of the same compound?
**A.** slight Akt activation

**Q.** And the “activation of p38 and JNK1/2” value ([11]; 2 h treatment)?
**A.** pronounced activation

**Q.** And the “AR-FL and AR-V7 expression” value ([11]; 48 h treatment)?
**A.** downregulated both, AR full length (AR-FL) and AR-V7

**Q.** And the “Bax and Bcl-2 expression” value ([11]; 48 h treatment)?
**A.** up-regulation of Bax and down-regulation of Bcl-2

**Q.** What about the “LC3B-II and SQSTM1 levels (autophagy markers)” value ([11]; pre-cytotoxic and cytotoxic concentrations, 48 h) of the same compound?
**A.** accumulation of both, LC3B-II and SQSTM1
